Biological target: T1, mTOR kinase (Homo sapiens, UniProt P42345)
T1 construct: purchased Invitrogen Corp. (Madison, Wis., USA)
Assay: Z'-LYTE biochemical assay for mTOR (Invitrogen)
Procedure: The Z′-LYTE® biochemical assay for mTOR
The mTOR kinase activity was assessed using the Z′-LYTE® biochemical assay of Invitrogen Corp. (Madison, Wis., USA).

T1 sequence (P42345 1360-2549 limits assumed): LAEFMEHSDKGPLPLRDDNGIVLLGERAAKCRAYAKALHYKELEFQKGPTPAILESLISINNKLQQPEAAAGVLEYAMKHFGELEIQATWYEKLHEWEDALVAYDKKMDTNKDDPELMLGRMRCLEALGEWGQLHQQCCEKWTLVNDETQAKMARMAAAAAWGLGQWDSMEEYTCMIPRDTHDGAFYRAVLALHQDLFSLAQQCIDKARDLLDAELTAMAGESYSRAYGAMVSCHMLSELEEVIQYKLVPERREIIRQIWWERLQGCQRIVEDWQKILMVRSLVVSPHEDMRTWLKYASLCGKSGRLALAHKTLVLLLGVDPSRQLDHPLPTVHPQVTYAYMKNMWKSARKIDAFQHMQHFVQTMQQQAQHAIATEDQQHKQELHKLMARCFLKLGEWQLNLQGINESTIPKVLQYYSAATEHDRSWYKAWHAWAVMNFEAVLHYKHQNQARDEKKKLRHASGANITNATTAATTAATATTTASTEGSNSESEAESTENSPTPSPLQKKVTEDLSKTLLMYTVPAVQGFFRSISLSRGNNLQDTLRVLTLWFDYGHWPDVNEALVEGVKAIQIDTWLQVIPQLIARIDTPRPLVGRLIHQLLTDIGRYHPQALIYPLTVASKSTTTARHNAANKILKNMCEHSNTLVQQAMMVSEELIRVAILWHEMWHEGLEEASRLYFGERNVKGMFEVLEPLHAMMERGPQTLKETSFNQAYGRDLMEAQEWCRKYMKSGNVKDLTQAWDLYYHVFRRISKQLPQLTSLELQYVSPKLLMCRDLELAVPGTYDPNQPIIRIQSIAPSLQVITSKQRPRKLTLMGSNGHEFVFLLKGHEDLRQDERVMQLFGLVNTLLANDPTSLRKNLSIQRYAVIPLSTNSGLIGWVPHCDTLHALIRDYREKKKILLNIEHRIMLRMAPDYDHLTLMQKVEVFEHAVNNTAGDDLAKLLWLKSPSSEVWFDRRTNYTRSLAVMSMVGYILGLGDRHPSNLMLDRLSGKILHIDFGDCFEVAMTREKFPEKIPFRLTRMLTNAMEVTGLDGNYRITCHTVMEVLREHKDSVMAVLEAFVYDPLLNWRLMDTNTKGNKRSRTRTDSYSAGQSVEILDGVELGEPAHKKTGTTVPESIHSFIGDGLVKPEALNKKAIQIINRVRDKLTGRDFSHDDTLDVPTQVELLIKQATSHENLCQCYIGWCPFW

IC50 [nM]	SMILES
< 1000	Nc1ncc(-c2nc(N3CCOCC3)nc3c2cnn3C2CCOCC2)cn1 [Example 1, 5-(1-(2H-3,4,5,6-tetrahydropyran-4-yl)-6-morpholin-4-ylpyrazolo[4,5-e]pyrimidin-4-yl)pyrimidine-2-ylamine]
< 1000	CN1CCN(C(=O)N2CCC(n3ncc4c(-c5cnc(N)nc5)nc(N5CCOCC5)nc43)CC2)CC1 [Example 4, 4-[4-(2-aminopyrimidin-5-yl)-6-morpholin-4-ylpyrazolo[5,4-d]pyrimidinyl]piperidyl 4-methylpiperazinyl ketone]
